In ChEMBL document CHEMBL1201862, “PubChem BioAssay data set” (2004) one finds EC50 and IC50 data, which are given here for two compounds.

Experiment [1] in a line: Trypanosoma cruzi growth suppression in host cells – NIH3T3 host cells, beta-gal luminescence, confirmation (AID 2044).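 Further: intracellular parasites grown in NIH/3T3 mouse fibroblasts as host cells; luminescent beta-galactosidase reporter signal from transgenic T. cruzi replicating inside host cells; inhibitors lower the luminescence signal.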 It is filed as functional, cell-based.
A short description of experiment [2]: NIH3T3 cell viability loss – ATP luminescence, mouse fibroblasts, counter-screen, dose response (AID 2010).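 Further: cells exposed to compound for about 90 hours before reading.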 It is filed as functional, cell-based.
Experiment [3] addresses Intestinal-type alkaline phosphatase (Mus musculus, UniProt P24822). Description: PubChem AID 488785. It is filed as functional.
For experiment [4], the target named is Alkaline phosphatase, tissue-nonspecific isozyme (Homo sapiens, UniProt P05186). Description: TNAP enzyme inhibition by screening hits, dose response, selectivity assay for mouse IAP inhibitor project, biochemical, human TNAP, uHTS hits (AID 488906). It is filed as functional.
Experiment [5] has as its target Intestinal-type alkaline phosphatase (Homo sapiens, UniProt P09923). Description: inhibition of human intestinal alkaline phosphatase – biochemical, dose response (AID 488876). Type of experiment: functional.
The target of experiment [6] is T1, Dual specificity protein phosphatase 3 (Homo sapiens, UniProt P51452). Description: VHR1 phosphatase inhibitors, primary screen, biochemical, absorbance, uHTS (AID 1654).
In experiment [7] the target is Guanyl-specific ribonuclease T1 (Aspergillus oryzae (strain ATCC 42149 / RIB 40), UniProt P00651). Description: inhibition of ribonuclease T1 activity – biochemical, fluorescence polarization, 1536-well, counter-screen for TPT1 inhibitor project, dose response (AID 2167).
Experiment [8] has as its target T2, SUMO-activating enzyme (Homo sapiens, UniProt Q9UBT2). Description: blockers of UBC9-mediated SUMO conjugation – biochemical, AlphaScreen, SUMOylation inhibitor project, confirmation (AID 2018). It is filed as functional.
In experiment [9] the target is T3, Voltage-gated N-type calcium channel alpha-1B subunit/Amyloid beta A4 precursor protein-binding family A member 1 (Homo sapiens, UniProt Q00975+Q02410). Type of experiment: protein assay.
For experiment [10], the target named is T2, SUMO-activating enzyme. Description: blockers of SAE1/SAE2–UBC9 SUMO transfer – biochemical, HTRF, uHTS, primary screen (AID 2006). It is filed as protein-complex assay.
For experiment [11], the target named is Likely tRNA 2'-phosphotransferase (Candida albicans (strain SC5314 / ATCC MYA-2876) (Yeast), UniProt Q5A7N4). Description: inhibition of Candida TPT1 enzyme activity – biochemical, fluorescence polarization, dose response (AID 2160).
The target of experiment [12] is T3, Voltage-gated N-type calcium channel alpha-1B subunit/Amyloid beta A4 precursor protein-binding family A member 1. It is filed as protein assay. This is another data set of the same source.
In experiment [13] the target is T1, Dual specificity protein phosphatase 3. Description: VHR1 phosphatase inhibitors, biochemical (AID 1878).
The target of experiment [14] is T4, Dual specificity protein phosphatase 6 (Rattus norvegicus, UniProt Q64346).
T4 sequence (Q64346 whole entry): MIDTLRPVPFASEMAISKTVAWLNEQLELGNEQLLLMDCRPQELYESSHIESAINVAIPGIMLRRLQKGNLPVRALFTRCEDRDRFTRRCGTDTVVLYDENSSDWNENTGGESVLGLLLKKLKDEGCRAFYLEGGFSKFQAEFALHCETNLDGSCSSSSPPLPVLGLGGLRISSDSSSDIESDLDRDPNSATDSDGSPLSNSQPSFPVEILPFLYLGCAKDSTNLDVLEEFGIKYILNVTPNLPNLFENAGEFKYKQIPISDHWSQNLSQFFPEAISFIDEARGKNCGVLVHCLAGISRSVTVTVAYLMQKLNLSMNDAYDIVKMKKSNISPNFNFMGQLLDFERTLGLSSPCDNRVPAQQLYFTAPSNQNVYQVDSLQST
Description: inhibition of rat DUSP6 enzyme activity – biochemical, in vitro, primary screen (AID 425).

The target of experiment [15] is T5, Small ubiquitin-related modifier 1 (Homo sapiens, UniProt P63165). Description: SUMO1 protein interaction blockers, potency – biochemical, fluorescence polarization, uHTS hits, dose response (AID 624382). The following applies: read-out: IC50_Mean. Type of experiment: functional.
The target of experiment [16] is T5, Small ubiquitin-related modifier 1. Description: SUMO1 protein-protein binding blockers, potency – biochemical, FRET, dose response (AID 624383). It is filed as functional. Conditions: read-out: IC50_Mean.

Calls of active or inactive are those of the source. Bounds are passed on as bounds.

T5 sequence (P63165 whole entry): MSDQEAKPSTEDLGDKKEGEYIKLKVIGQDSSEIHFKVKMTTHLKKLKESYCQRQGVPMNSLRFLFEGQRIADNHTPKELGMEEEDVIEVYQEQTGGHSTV
T1 sequence (P51452 whole entry): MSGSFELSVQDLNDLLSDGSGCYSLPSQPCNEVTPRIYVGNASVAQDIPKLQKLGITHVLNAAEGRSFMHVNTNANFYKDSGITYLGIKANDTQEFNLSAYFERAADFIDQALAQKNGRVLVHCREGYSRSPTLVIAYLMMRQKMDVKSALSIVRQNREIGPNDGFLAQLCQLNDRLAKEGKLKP
T2 sequence (Q9UBE0 whole entry): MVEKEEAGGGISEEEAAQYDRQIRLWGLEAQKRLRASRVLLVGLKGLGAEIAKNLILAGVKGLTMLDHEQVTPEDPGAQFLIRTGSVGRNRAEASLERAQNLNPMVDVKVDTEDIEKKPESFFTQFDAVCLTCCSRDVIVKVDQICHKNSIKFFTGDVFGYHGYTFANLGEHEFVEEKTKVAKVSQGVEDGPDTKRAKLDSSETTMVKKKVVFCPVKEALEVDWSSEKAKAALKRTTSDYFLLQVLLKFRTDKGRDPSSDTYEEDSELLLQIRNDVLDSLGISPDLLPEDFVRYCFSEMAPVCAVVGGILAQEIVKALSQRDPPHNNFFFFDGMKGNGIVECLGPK
T2 sequence (Q9UBT2 whole entry): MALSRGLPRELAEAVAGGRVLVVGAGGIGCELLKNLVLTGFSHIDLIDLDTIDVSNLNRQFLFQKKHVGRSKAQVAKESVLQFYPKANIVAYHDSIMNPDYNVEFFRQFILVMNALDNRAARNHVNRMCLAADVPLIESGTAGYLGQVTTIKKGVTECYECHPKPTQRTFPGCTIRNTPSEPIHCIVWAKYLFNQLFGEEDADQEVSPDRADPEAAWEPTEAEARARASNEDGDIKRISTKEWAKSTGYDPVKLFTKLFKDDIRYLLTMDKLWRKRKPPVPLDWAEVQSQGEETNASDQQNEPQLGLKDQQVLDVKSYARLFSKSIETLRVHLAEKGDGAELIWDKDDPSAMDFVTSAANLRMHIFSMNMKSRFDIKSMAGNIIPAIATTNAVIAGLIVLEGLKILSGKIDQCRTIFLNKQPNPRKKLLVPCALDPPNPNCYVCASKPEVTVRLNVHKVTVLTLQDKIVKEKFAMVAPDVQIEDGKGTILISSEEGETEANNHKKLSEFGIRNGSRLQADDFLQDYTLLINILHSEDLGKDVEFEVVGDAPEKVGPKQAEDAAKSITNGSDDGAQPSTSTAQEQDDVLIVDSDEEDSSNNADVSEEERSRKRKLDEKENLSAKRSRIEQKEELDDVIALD
T3 sequence (Q00975 whole entry): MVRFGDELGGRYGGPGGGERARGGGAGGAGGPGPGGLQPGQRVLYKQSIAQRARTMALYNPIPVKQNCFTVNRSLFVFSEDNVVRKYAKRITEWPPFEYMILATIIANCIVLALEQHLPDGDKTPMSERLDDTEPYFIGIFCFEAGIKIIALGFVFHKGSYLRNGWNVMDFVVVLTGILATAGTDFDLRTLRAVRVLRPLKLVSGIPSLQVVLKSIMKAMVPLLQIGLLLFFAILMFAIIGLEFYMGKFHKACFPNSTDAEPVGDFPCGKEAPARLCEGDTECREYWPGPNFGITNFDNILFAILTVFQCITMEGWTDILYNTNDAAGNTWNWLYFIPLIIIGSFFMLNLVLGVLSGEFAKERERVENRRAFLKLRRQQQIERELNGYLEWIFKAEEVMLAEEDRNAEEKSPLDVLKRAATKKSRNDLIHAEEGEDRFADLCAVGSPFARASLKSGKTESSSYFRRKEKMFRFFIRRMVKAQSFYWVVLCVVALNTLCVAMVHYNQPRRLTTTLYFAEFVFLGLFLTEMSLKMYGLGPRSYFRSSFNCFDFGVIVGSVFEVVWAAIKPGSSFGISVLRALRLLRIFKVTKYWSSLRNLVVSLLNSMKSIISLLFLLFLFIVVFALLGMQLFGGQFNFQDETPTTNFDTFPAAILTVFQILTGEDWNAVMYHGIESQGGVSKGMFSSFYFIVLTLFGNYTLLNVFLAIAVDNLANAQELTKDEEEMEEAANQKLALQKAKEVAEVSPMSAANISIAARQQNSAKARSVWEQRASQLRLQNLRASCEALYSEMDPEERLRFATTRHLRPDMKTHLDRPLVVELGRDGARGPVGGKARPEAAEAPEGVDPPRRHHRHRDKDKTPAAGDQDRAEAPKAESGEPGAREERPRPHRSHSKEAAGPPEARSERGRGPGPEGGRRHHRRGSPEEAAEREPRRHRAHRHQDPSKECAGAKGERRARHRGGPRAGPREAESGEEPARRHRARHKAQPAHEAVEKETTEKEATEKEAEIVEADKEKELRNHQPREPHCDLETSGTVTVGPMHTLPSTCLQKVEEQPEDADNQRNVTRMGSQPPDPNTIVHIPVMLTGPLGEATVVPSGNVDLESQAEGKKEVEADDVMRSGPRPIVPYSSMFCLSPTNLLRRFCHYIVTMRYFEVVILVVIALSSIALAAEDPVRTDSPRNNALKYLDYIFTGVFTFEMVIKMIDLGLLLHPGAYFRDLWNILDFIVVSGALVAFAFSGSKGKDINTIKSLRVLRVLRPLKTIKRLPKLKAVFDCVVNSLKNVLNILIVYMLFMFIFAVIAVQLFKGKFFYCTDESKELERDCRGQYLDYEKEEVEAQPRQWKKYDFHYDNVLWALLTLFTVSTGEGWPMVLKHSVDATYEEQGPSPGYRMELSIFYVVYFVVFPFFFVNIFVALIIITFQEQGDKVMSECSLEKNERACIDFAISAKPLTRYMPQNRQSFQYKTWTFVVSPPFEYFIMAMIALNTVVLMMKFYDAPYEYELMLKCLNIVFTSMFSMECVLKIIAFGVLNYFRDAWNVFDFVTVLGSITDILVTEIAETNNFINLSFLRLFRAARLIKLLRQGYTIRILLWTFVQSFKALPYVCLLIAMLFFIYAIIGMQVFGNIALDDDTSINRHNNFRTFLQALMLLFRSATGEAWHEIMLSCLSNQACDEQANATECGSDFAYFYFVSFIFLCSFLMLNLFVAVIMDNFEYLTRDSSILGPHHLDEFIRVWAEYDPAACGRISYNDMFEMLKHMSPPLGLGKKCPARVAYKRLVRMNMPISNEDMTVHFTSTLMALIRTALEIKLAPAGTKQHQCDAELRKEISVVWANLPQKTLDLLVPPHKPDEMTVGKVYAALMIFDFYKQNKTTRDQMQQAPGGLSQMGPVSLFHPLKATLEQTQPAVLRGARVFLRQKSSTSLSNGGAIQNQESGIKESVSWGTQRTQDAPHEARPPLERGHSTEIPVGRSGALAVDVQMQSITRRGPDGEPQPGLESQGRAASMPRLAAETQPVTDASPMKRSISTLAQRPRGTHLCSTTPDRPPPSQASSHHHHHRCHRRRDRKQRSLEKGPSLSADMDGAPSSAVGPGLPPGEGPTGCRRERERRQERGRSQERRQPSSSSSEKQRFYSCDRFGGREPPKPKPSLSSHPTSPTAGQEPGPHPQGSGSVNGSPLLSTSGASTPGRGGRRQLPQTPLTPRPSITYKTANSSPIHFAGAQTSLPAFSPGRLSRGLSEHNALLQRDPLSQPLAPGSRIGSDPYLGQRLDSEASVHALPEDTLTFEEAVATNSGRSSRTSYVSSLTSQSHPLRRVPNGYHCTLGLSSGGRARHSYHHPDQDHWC
T3 sequence (Q02410 whole entry): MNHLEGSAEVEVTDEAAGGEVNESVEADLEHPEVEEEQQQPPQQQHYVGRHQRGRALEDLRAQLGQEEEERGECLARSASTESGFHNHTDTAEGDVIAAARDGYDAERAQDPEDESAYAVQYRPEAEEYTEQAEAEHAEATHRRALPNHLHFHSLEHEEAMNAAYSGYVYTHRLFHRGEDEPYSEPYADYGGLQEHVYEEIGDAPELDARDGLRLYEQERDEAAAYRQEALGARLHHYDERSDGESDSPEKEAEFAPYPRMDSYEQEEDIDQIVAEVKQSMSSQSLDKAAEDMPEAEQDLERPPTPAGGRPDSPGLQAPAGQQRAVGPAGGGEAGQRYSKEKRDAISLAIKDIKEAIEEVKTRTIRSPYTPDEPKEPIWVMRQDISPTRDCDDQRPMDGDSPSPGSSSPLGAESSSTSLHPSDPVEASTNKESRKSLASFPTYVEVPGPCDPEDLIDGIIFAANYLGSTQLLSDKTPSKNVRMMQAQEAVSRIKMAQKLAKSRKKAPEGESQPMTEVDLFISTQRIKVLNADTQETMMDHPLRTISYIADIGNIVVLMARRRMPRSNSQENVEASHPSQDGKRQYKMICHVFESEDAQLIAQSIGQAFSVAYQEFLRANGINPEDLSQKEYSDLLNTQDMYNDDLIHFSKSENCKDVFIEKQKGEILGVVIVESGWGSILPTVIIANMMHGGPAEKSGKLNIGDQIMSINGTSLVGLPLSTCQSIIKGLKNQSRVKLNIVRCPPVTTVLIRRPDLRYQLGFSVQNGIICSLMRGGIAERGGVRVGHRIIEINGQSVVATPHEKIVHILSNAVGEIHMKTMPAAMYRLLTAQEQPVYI
Chain of Intestinal-type alkaline phosphatase (Homo sapiens, UniProt P09923) (P09923 whole entry): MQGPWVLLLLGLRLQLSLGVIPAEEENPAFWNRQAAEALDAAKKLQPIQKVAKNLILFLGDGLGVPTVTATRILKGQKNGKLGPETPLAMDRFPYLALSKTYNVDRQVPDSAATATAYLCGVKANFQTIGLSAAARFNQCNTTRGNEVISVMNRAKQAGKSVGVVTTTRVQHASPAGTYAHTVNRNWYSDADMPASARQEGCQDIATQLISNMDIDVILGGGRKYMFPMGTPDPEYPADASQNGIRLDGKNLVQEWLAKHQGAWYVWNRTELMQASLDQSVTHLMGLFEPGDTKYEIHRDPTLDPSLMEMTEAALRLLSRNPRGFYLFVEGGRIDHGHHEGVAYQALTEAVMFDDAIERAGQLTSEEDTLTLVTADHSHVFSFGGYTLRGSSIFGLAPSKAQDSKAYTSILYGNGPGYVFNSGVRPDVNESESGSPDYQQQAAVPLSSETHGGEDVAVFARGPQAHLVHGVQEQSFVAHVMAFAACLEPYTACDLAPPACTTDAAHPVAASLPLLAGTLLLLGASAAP

For `COc1cc(NC(S)=NCCC(c2ccccc2)c2ccccc2)cc(OC)c1`, the EC50 in [1] is 2.02 µM (active); in experiment [2] it was > 60 µM (not active). Besides, the figures for the IC50 in experiment [3], in [4] and in experiment [5] were 13.7 µM (active), 12.2 µM (active) and > 100 µM (inactive), respectively.

As to `Cc1cc(C)n(Cc2ccc(C(=O)N/N=C/c3ccc(-c4ccc([N+](=O)[O-])cc4)o3)o2)n1`, the IC50 in experiment [6] is 123 µM (inactive); in experiment [7] it was > 55.7 µM (not active); on SUMO-activating enzyme [8], 5.62 µM (active); in experiment [9], 20.2 µM (active); at SUMO-activating enzyme [10], 33 µM (active); in experiment [11] it was 3.55 µM (active). The IC50 was 14 µM (active) in experiment [12]; 6.64 µM (active) in [13]; 40 µM (active) in [14]; > 66.6 µM (inactive) in [15]; 3.17 µM (active) in experiment [16].
